Experimental data: US9392792B1, “Topical combination of fipronil, permethrin and pyriproxyfen” (priority 2014, dated 2016)

Experiment: Crystallization test on glass slides at ambient temperature
Format: physicochemical
Details: comparison of compositions R1 and C2
Protocol: Number of glass slides per composition: 5 Protocol: • place the glass slides on a dark-coloured support; • deposit approximately 300 μl of the test composition on each glass slide, while spreading it on the central part of the glass slide (so as to avoid overspill); • leave the glass slide for 24 h in an environment at ambient temperature (approximately 20° C.). The following observations will be carried out: • the visual appearance (to the naked eye) of the compositions is observed after deposition thereof on a glass slide and reported in the observation table; • the visual appearance (to the naked eye) of the compositions is observed after 24 h at ambient temperature and is reported in the observation table while pointing out the possible presence and, where appropriate, the number of crystals present on the whole of the plate; • next, the plates are observed under polarized light and any crystals present are counted on the whole of the plate; an estimation of the size of the crystals is also carried out; • finally, the presence and the count of the crystals possibly present on each of the plates is reported in the observation table. […]

CC(COc1ccc(Oc2ccccc2)cc1)Oc1ccccn1 (stereo not shown) [pyriproxyfen, Pyriproxyfen]
effect of pyriproxyfen on crystallization of fipronil in the presence of permethrin at high concentration: substantially reduces the crystallization
